Laboratory results published in article PMC9027111, “Morphing Natural Product Platensimycin via Heck, Sonogashira, and One-Pot Sonogashira/Cycloaddition Reactions to Produce Antibiotics with In Vivo Activity” (Antibiotics, 2022).
≈ marks a conversion by molar mass, not a printed value.

Key:
Type in all cases: cell-based
S. aureus ATCC 29213 = assay: MIC determination (LB agar dilution), S. aureus ATCC 29213; conditions: Staphylococcus aureus, ATCC29213, at least two replicates
Procedure: (§1) All of the tested compounds were prepared to different concentrations with methanol, and 150 μL of the respective methanol solution was used to mix with 15 mL LB (Luria–Bertani) medium with 1% agar in each Petri dish. Linezolid and PTM were used as reference compounds for comparison. In vitro bioassay for compounds was carried out using clinical strains of S. aureus, E. coli, and Klebsilla pneumoniae. The bacteria were cultivated in LB medium and incubated for 16 h at 37 °C, 250 rpm. The resulting bacteria were diluted to approximate 0.25 at OD600, which were further diluted 10_4-fold. The diluted bacteria (2 μL) were added to Petri dish containing the respective compounds. The resulting Petri dishes were incubated for 16 h at 37 °C. The determination of MIC is the concentration of Petri dishes with no visible growth of bacteria.

MSSA 1 = assay: MIC determination (LB agar dilution), clinical MSSA strain 1; conditions: Staphylococcus aureus, at least two replicates
Procedure: as §1

MSSA 2 = assay: MIC determination (LB agar dilution), clinical MSSA strain 2; conditions: Staphylococcus aureus, at least two replicates
Procedure: as §1

MRSA 3 = assay: MIC determination (LB agar dilution), clinical MRSA strain 3; conditions: Staphylococcus aureus, at least two replicates
Procedure: as §1

MRSA 4 = assay: MIC determination (LB agar dilution), clinical MRSA strain 4; conditions: Staphylococcus aureus, at least two replicates
Procedure: as §1

Question: Which MIC (S. aureus ATCC 29213) does the source give for `COC(=O)C=CC1=CC23CC4CC(OC4(C)C2)C3C(C)(CCC(=O)Nc2c(O)ccc(C(=O)O)c2O)C1=O` (centres unmarked) [A1] here?
Answer: 2 µg/mL (≈ 3.81 µM)

Question: What about the MIC (MSSA 1) of the same molecule?
Answer: 2 µg/mL (≈ 3.81 µM)

Question: And the MIC (MSSA 2)?
Answer: 2 µg/mL (≈ 3.81 µM)

Question: What about the MIC (MRSA 3) of the same molecule?
Answer: 2 µg/mL (≈ 3.81 µM)

Question: And the MIC (MRSA 4)?
Answer: 2 µg/mL (≈ 3.81 µM)

Question: What does the source list for `CC12CC34C=C(C=CC(N)=O)C(=O)C(C)(CCC(=O)Nc5c(O)ccc(C(=O)O)c5O)C3C(CC1C4)O2` (centres unmarked) [A6]?
Answer: MIC (S. aureus ATCC 29213): 64 µg/mL (≈ 125 µM); MIC (MSSA 1): 64 µg/mL (≈ 125 µM); MIC (MSSA 2): 64 µg/mL (≈ 125 µM); MIC (MRSA 3): 64 µg/mL (≈ 125 µM); MIC (MRSA 4): 64 µg/mL (≈ 125 µM)

Question: With `CC(=O)C1=C(C)OC(Cc2ccc(C)cc2)=C2C(=O)C(C)(CCC(=O)Nc3c(O)ccc(C(=O)O)c3O)C3C4CC5CC3(CC5(C)O4)C12` (centres unmarked) [C2] as the molecule, how does the MIC (S. aureus ATCC 29213) read?
Answer: 16 µg/mL (≈ 24.4 µM)

Question: What about the MIC (MSSA 1) of the same molecule?
Answer: 16 µg/mL (≈ 24.4 µM)

Question: What about the MIC (MSSA 2) of the same molecule?
Answer: 16 µg/mL (≈ 24.4 µM)

Question: And the MIC (MRSA 3)?
Answer: 16 µg/mL (≈ 24.4 µM)

Question: What about the MIC (MRSA 4) of the same molecule?
Answer: 16 µg/mL (≈ 24.4 µM)

Question: With `CC12CC34C=C(C#Cc5ccc(Cl)cc5)C(=O)C(C)(CCC(=O)Nc5c(O)ccc(C(=O)O)c5O)C3C(CC1C4)O2` (centres unmarked) [B15] as the molecule, how does the MIC (S. aureus ATCC 29213) read?
Answer: 1 µg/mL (≈ 1.74 µM)

Question: And the MIC (MSSA 1)?
Answer: 1 µg/mL (≈ 1.74 µM)

Question: And the MIC (MSSA 2)?
Answer: 1 µg/mL (≈ 1.74 µM)

Question: What about the MIC (MRSA 3) of the same molecule?
Answer: 1 µg/mL (≈ 1.74 µM)

Question: And the MIC (MRSA 4)?
Answer: 1 µg/mL (≈ 1.74 µM)

Question: For `CC(=O)NC[C@H]1CN(c2ccc(N3CCOCC3)c(F)c2)C(=O)O1` [Linezolid, reference compound], which MIC (S. aureus ATCC 29213) is on record?
Answer: 1 µg/mL (≈ 2.96 µM)

Question: What about the MIC (MSSA 1) of the same molecule?
Answer: 1 µg/mL (≈ 2.96 µM)

Question: What about the MIC (MSSA 2) of the same molecule?
Answer: 1 µg/mL (≈ 2.96 µM)

Question: What about the MIC (MRSA 3) of the same molecule?
Answer: 1 µg/mL (≈ 2.96 µM)

Question: What about the MIC (MRSA 4) of the same molecule?
Answer: 1 µg/mL (≈ 2.96 µM)

Question: Which results are given for `CC(C)(C)C#CC1=CC23CC4CC(OC4(C)C2)C3C(C)(CCC(=O)Nc2c(O)ccc(C(=O)O)c2O)C1=O` (centres unmarked) [B3]?
Answer: MIC (S. aureus ATCC 29213): 1 µg/mL (≈ 1.92 µM); MIC (MSSA 1): 1 µg/mL (≈ 1.92 µM); MIC (MSSA 2): 1 µg/mL (≈ 1.92 µM); MIC (MRSA 3): 1 µg/mL (≈ 1.92 µM); MIC (MRSA 4): 1 µg/mL (≈ 1.92 µM)

Question: `CC(=O)C1=C(C)OC(Cc2ccc(Cl)cc2)=C2C(=O)C(C)(CCC(=O)Nc3c(O)ccc(C(=O)O)c3O)C3C4CC5CC3(CC5(C)O4)C12` (centres unmarked) [C7] was tested. Which MIC (S. aureus ATCC 29213) did it give?
Answer: 32 µg/mL (≈ 47.3 µM)

Question: What about the MIC (MSSA 1) of the same molecule?
Answer: 32 µg/mL (≈ 47.3 µM)

Question: What about the MIC (MSSA 2) of the same molecule?
Answer: 32 µg/mL (≈ 47.3 µM)

Question: And the MIC (MRSA 3)?
Answer: 32 µg/mL (≈ 47.3 µM)

Question: What about the MIC (MRSA 4) of the same molecule?
Answer: 32 µg/mL (≈ 47.3 µM)

Question: Which MIC (S. aureus ATCC 29213) does the source give for `CCCCOC(=O)C=CC1=CC23CC4CC(OC4(C)C2)C3C(C)(CCC(=O)Nc2c(O)ccc(C(=O)O)c2O)C1=O` (centres unmarked) [A3] here?
Answer: 1 µg/mL (≈ 1.76 µM)

Question: And the MIC (MSSA 1)?
Answer: 1 µg/mL (≈ 1.76 µM)

Question: And the MIC (MSSA 2)?
Answer: 1 µg/mL (≈ 1.76 µM)

Question: What about the MIC (MRSA 3) of the same molecule?
Answer: 1 µg/mL (≈ 1.76 µM)

Question: And the MIC (MRSA 4)?
Answer: 1 µg/mL (≈ 1.76 µM)

Question: Which MIC (S. aureus ATCC 29213) does the source give for `CC12CC34C=C(C#Cc5ccc(F)cc5)C(=O)C(C)(CCC(=O)Nc5c(O)ccc(C(=O)O)c5O)C3C(CC1C4)O2` (centres unmarked) [B14] here?
Answer: 1 µg/mL (≈ 1.79 µM)

Question: What about the MIC (MSSA 1) of the same molecule?
Answer: 1 µg/mL (≈ 1.79 µM)

Question: And the MIC (MSSA 2)?
Answer: 1 µg/mL (≈ 1.79 µM)

Question: And the MIC (MRSA 3)?
Answer: 1 µg/mL (≈ 1.79 µM)

Question: And the MIC (MRSA 4)?
Answer: 1 µg/mL (≈ 1.79 µM)

Question: Which MIC (S. aureus ATCC 29213) does the source give for `CC12CC34C=C(C#CC5CC5)C(=O)C(C)(CCC(=O)Nc5c(O)ccc(C(=O)O)c5O)C3C(CC1C4)O2` (centres unmarked) [B4] here?
Answer: 1 µg/mL (≈ 1.98 µM)

Question: What about the MIC (MSSA 1) of the same molecule?
Answer: 1 µg/mL (≈ 1.98 µM)

Question: What about the MIC (MSSA 2) of the same molecule?
Answer: 1 µg/mL (≈ 1.98 µM)

Question: What about the MIC (MRSA 3) of the same molecule?
Answer: 1 µg/mL (≈ 1.98 µM)

Question: What about the MIC (MRSA 4) of the same molecule?
Answer: 1 µg/mL (≈ 1.98 µM)

Question: How did the MIC (S. aureus ATCC 29213) turn out when `COc1ccc(C#CC2=CC34CC5CC(OC5(C)C3)C4C(C)(CCC(=O)Nc3c(O)ccc(C(=O)O)c3O)C2=O)cc1` (centres unmarked) [B13] was run?
Answer: 1 µg/mL (≈ 1.75 µM)

Question: And the MIC (MSSA 1)?
Answer: 1 µg/mL (≈ 1.75 µM)

Question: And the MIC (MSSA 2)?
Answer: 1 µg/mL (≈ 1.75 µM)

Question: What about the MIC (MRSA 3) of the same molecule?
Answer: 1 µg/mL (≈ 1.75 µM)

Question: And the MIC (MRSA 4)?
Answer: 1 µg/mL (≈ 1.75 µM)

Question: `CCc1ccc(C#CC2=CC34CC5CC(OC5(C)C3)C4C(C)(CCC(=O)Nc3c(O)ccc(C(=O)O)c3O)C2=O)cc1` (centres unmarked) [B11] was tested. Which MIC (S. aureus ATCC 29213) did it give?
Answer: 1 µg/mL (≈ 1.76 µM)

Question: What about the MIC (MSSA 1) of the same molecule?
Answer: 1 µg/mL (≈ 1.76 µM)

Question: What about the MIC (MSSA 2) of the same molecule?
Answer: 1 µg/mL (≈ 1.76 µM)

Question: And the MIC (MRSA 3)?
Answer: 1 µg/mL (≈ 1.76 µM)

Question: What about the MIC (MRSA 4) of the same molecule?
Answer: 1 µg/mL (≈ 1.76 µM)

Question: With `CCCCc1ccc(CC2=C3C(=O)C(C)(CCC(=O)Nc4c(O)ccc(C(=O)O)c4O)C4C5CC6CC4(CC6(C)O5)C3C(C(C)=O)=C(C)O2)cc1` (centres unmarked) [C4] as the molecule, how does the MIC (S. aureus ATCC 29213) read?
Answer: 32 µg/mL (≈ 45.9 µM)

Question: And the MIC (MSSA 1)?
Answer: 32 µg/mL (≈ 45.9 µM)

Question: And the MIC (MSSA 2)?
Answer: 32 µg/mL (≈ 45.9 µM)

Question: What about the MIC (MRSA 3) of the same molecule?
Answer: 32 µg/mL (≈ 45.9 µM)

Question: What about the MIC (MRSA 4) of the same molecule?
Answer: 32 µg/mL (≈ 45.9 µM)

Question: Which results are given for `CC12CC34C=C(C=CC(=O)OCCO)C(=O)C(C)(CCC(=O)Nc5c(O)ccc(C(=O)O)c5O)C3C(CC1C4)O2` (centres unmarked) [A2]?
Answer: MIC (S. aureus ATCC 29213): 16 µg/mL (≈ 28.8 µM); MIC (MSSA 1): 16 µg/mL (≈ 28.8 µM); MIC (MSSA 2): 16 µg/mL (≈ 28.8 µM); MIC (MRSA 3): 16 µg/mL (≈ 28.8 µM); MIC (MRSA 4): 16 µg/mL (≈ 28.8 µM)

Question: Which MIC (S. aureus ATCC 29213) does the source give for `C#CC1=CC23CC4CC(OC4(C)C2)C3C(C)(CCC(=O)Nc2c(O)ccc(C(=O)O)c2O)C1=O` (centres unmarked) [B1] here?
Answer: 8 µg/mL (≈ 17.2 µM)

Question: What about the MIC (MSSA 1) of the same molecule?
Answer: 8 µg/mL (≈ 17.2 µM)

Question: What about the MIC (MSSA 2) of the same molecule?
Answer: 8 µg/mL (≈ 17.2 µM)

Question: What about the MIC (MRSA 3) of the same molecule?
Answer: 8 µg/mL (≈ 17.2 µM)

Question: What about the MIC (MRSA 4) of the same molecule?
Answer: 8 µg/mL (≈ 17.2 µM)

Question: With `CC12CC34C=C(C#Cc5ccccc5)C(=O)C(C)(CCC(=O)Nc5c(O)ccc(C(=O)O)c5O)C3C(CC1C4)O2` (centres unmarked) [B7] as the molecule, how does the MIC (S. aureus ATCC 29213) read?
Answer: 1 µg/mL (≈ 1.85 µM)

Question: And the MIC (MSSA 1)?
Answer: 1 µg/mL (≈ 1.85 µM)

Question: And the MIC (MSSA 2)?
Answer: 1 µg/mL (≈ 1.85 µM)

Question: And the MIC (MRSA 3)?
Answer: 1 µg/mL (≈ 1.85 µM)

Question: And the MIC (MRSA 4)?
Answer: 1 µg/mL (≈ 1.85 µM)
